In patent publication US10988459B2 (priority 2015, dated 2021):
pKi: −log10 of the molar value.

Each compound was assayed against human RIP1 kinase domain (2-375) (Homo sapiens (Human), UniProt Q13546) (assay: biochemical). Conditions: human RIP1 kinase domain (2-375), 50 uM ATP, 2 hours incubation, Transcreener ADP assay; read-out: RIP1 Ki.
Format: biochemical
In short: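 Ki^app comes from Morrison tight-binding fits of fractional activity versus compound concentration. Activity was read as ADP production, via tracer displacement lowering fluorescence polarization (633 nm laser). Conditions: 2 h, 50 nM insect-cell-expressed enzyme, 50 uM ATP, 30 mM MgCl2, 1 mM DTT, 0.5% DMSO, pH 7.5 Hepes.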

human RIP1 kinase domain (2-375), sequence (Q13546 2-375): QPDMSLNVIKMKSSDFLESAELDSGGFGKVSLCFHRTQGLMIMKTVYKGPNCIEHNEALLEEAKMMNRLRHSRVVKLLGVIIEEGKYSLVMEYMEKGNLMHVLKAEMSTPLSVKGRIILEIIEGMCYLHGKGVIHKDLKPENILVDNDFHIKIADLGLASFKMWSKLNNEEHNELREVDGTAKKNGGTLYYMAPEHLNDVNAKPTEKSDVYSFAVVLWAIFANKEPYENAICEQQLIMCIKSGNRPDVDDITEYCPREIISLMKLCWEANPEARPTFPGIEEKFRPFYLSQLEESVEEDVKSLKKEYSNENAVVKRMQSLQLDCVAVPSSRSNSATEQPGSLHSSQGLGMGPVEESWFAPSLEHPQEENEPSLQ

`Cc1cc2n(n1)CC[C@H](NC(=O)c1ncn(Cc3ccc(F)c(F)c3)n1)C(=O)N2C` [Example 220, (S)-1-(3,4-difluorobenzyl)-N-(2,4-dimethyl-5-oxo-5,6,7,8-tetrahydro-4H-pyrazolo[1,5-a][1,3]diazepin-6-yl)-1H-1,2,4-triazole-3-carboxamide] and `Cc1cc2n(n1)CC[C@H](NC(=O)c1ncn(Cc3ccc(F)cc3F)n1)C(=O)N2C` [Example 221, (S)-1-(2,4-difluorobenzyl)-N-(2,4-dimethyl-5-oxo-5,6,7,8-tetrahydro-4H-pyrazolo[1,5-a][1,3]diazepin-6-yl)-1H-1,2,4-triazole-3-carboxamide] are within 0.2 log units of each other in pKi: 7.33 for the first, 7.42 for the second.

`Cc1cc2n(n1)CC[C@H](NC(=O)c1ncn(Cc3ccc(F)cc3)n1)C(=O)N2C` [Example 222, (S)—N-(2,4-dimethyl-5-oxo-5,6,7,8-tetrahydro-4H-pyrazolo[1,5-a][1,3]diazepin-6-yl)-1-(4-fluorobenzyl)-1H-1,2,4-triazole-3-carboxamide] and `CN1C(=O)[C@@H](NC(=O)c2ncn(Cc3ccc(F)cc3)n2)CCn2nc(C3CC3)cc21` [Example 225, (S)—N-(2-cyclopropyl-4-methyl-5-oxo-5,6,7,8-tetrahydro-4H-pyrazolo[1,5-a][1,3]diazepin-6-yl)-1-(4-fluorobenzyl)-1H-1,2,4-triazole-3-carboxamide] are within 0.2 log units of each other in pKi: 7.59 for the first, 7.68 for the second.

`CN1C(=O)[C@@H](NC(=O)c2ncn(Cc3ccc(F)c(F)c3)n2)CCn2nc(C3CC3)cc21` [Example 223, (S)—N-(2-cyclopropyl-4-methyl-5-oxo-5,6,7,8-tetrahydro-4H-pyrazolo[1,5-a][1,3]diazepin-6-yl)-1-(3,4-difluorobenzyl)-1H-1,2,4-triazole-3-carboxamide] and `CN1C(=O)[C@@H](NC(=O)c2ncn(Cc3ccc(F)cc3F)n2)CCn2nc(C3CC3)cc21` [Example 224, (S)—N-(2-cyclopropyl-4-methyl-5-oxo-5,6,7,8-tetrahydro-4H-pyrazolo[1,5-a][1,3]diazepin-6-yl)-1-(2,4-difluorobenzyl)-1H-1,2,4-triazole-3-carboxamide] are within 0.2 log units of each other in pKi: 7.50 for the first, 7.66 for the second.

Same assay, conditions: human RIP1 kinase domain (2-375), Transcreener ADP assay, 50 uM ATP, 2 hours incubation; read-out: RIP1 Ki

Compared with `Cc1ncn2c1N(C)C(=O)C(NC(=O)c1n[nH]c(Cc3ccccc3)n1)CC2` (stereo not shown) [Example 226, 5-benzyl-N-(1,9-dimethyl-2-oxo-2,3,4,5-tetrahydro-1H-imidazo[1,5-a][1,3]diazepin-3-yl)-1H-1,2,4-triazole-3-carboxamide], `Cc1ncn2c1N(C)C(=O)C(NC(=O)c1cn(Cc3ccccc3)nn1)CC2` (stereo not shown) [Example 227, 1-benzyl-N-(1,9-dimethyl-2-oxo-2,3,4,5-tetrahydro-1H-imidazo[1,5-a][1,3]diazepin-3-yl)-1H-1,2,3-triazole-4-carboxamide] is 0.36 log units lower in pKi: 6.74 for the first, 6.38 for the second. The first binds more tightly here.

Compared with `CC(C)c1ccc2[nH]nc(C(=O)N[C@H]3COc4ccccc4N(C)C3=O)c2c1` [Example 228, (S)-5-isopropyl-N-(5-methyl-4-oxo-2,3,4,5-tetrahydrobenzo[b][1,4]oxazepin-3-yl)-1H-indazole-3-carboxamide], `CC(C)c1cnc2[nH]nc(C(=O)N[C@H]3COc4ccccc4N(C)C3=O)c2c1` [Example 238, (S)-5-isopropyl-N-(5-methyl-4-oxo-2,3,4,5-tetrahydrobenzo[b][1,4]oxazepin-3-yl)-1H-pyrazolo[3,4-b]pyridine-3-carboxamide] is 1.04 log units lower in pKi: 8.30 for the first, 7.26 for the second.

Going from `CN1C(=O)[C@@H](NC(=O)c2cc3c(cn2)COC3(C)CC(F)(F)F)COc2ccccc21` (stereo partly drawn) [Example 229, 1-methyl-N—((S)-5-methyl-4-oxo-2,3,4,5-tetrahydrobenzo[b][1,4]oxazepin-3-yl)-1-(2,2,2-trifluoroethyl)-1,3-dihydrofuro[3,4-c]pyridine-6-carboxamide] to `COCC1(C)OCc2cnc(C(=O)N[C@H]3COc4ccccc4N(C)C3=O)cc21` (stereo partly drawn) [Example 231, 1-(methoxymethyl)-1-methyl-N—((S)-5-methyl-4-oxo-2,3,4,5-tetrahydrobenzo[b][1,4]oxazepin-3-yl)-1,3-dihydrofuro[3,4-c]pyridine-6-carboxamide], the pKi falls from 7.35 to 6.29 (1.06 log units).

Going from `CN1C(=O)[C@@H](NC(=O)c2ncn3cnc(C(F)(F)F)cc23)COc2ccccc21` [Example 230, (S)—N-(5-methyl-4-oxo-2,3,4,5-tetrahydrobenzo[b][1,4]oxazepin-3-yl)-7-(trifluoromethyl) imidazo[1,5-c]pyrimidine-1-carboxamide] to `CN1C(=O)[C@@H](NC(=O)c2n[nH]c3ncc(C4CC4)cc23)COc2ccccc21` [Example 239, (S)-5-cyclopropyl-N-(5-methyl-4-oxo-2,3,4,5-tetrahydrobenzo[b][1,4]oxazepin-3-yl)-1H-pyrazolo[3,4-b]pyridine-3-carboxamide], the pKi falls from 7.66 to 6.54 (1.12 log units). The first binds more tightly here.

First: CN1C(=O)[C@@H](NC(=O)c2cc3c(cn2)COC32CCOC2)COc2ccccc21 (stereo partly drawn) [Example 232, N—((S)-5-methyl-4-oxo-2,3,4,5-tetrahydrobenzo[b][1,4]oxazepin-3-yl)-4,5-dihydro-2H,3′ H-spiro[furan-3,1′-furo[3,4-c]pyridine]-6′-carboxamide]
Second: CC[C@@]1(C)OCc2cnc(C(=O)NC3CCn4ccnc4N(C)C3=O)cc21 (stereo partly drawn) [Example 233, (1R)-1-ethyl-1-methyl-N-(9-methyl-8-oxo-6,7,8,9-tetrahydro-5H-imidazo [1,2-a][1,3]diazepin-7-yl)-1,3-dihydrofuro[3,4-c]pyridine-6-carboxamide]
The pKi of the first is 1.35 log units higher: 7.05 for the first, 5.70 for the second. The first binds more tightly here.

Compared with `CN1C(=O)C(NC(=O)c2ncn(Cc3ccccc3)n2)CCn2nc(C3CCOCC3)cc21` (stereo not shown) [Example 234, 1-benzyl-N-(4-methyl-5-oxo-2-(tetrahydro-2H-pyran-4-yl)-5,6,7,8-tetrahydro-4H-pyrazolo[1,5-a][1,3]diazepin-6-yl)-1H-1,2,4-triazole-3-carboxamide], `CN1C(=O)C(NC(=O)c2cn(Cc3ccccc3)nn2)CCn2nc(C3CCOCC3)cc21` (stereo not shown) [Example 237, 1-benzyl-N-(4-methyl-5-oxo-2-(tetrahydro-2H-pyran-4-yl)-5,6,7,8-tetrahydro-4H-pyrazolo[1,5-a][1,3]diazepin-6-yl)-1H-1,2,3-triazole-4-carboxamide] is 0.85 log units lower in pKi: 6.70 for the first, 5.85 for the second.

First: CN1C(=O)C(NC(=O)c2n[nH]c(Cc3ccccc3)n2)CCn2nc(C3CCOCC3)cc21 (stereo not shown) [Example 235, 5-benzyl-N-(4-methyl-5-oxo-2-(tetrahydro-2H-pyran-4-yl)-5,6,7,8-tetrahydro-4H-pyrazolo[1,5-a][1,3]diazepin-6-yl)-1H-1,2,4-triazole-3-carboxamide]
Second: Cc1cc2n(n1)CC[C@H](NC(=O)c1nnc(Cc3ccccc3)[nH]1)C(=O)N2C [Example 240, (S)-5-benzyl-N-(2,4-dimethyl-5-oxo-5,6,7,8-tetrahydro-4H-pyrazolo[1,5-a][1,3]diazepin-6-yl)-4H-1,2,4-triazole-3-carboxamide]
The pKi of the first is 0.42 log units lower: 6.65 for the first, 7.07 for the second.

`CC[C@@]1(C)OCc2cnc(C(=O)NC3CCn4nc(C5CCOCC5)cc4N(C)C3=O)cc21` (stereo partly drawn) [Example 236, (1R)-1-ethyl-1-methyl-N-(4-methyl-5-oxo-2-(tetrahydro-2H-pyran-4-yl)-5,6,7,8-tetrahydro-4H-pyrazolo[1,5-a][1,3]diazepin-6-yl)-1,3-dihydrofuro[3,4-c]pyridine-6-carboxamide] and `Cc1cc2n(n1)CC[C@@H](NC(=O)c1nnc(Cc3ccccc3)[nH]1)C(=O)N2C` [Example 241, (R)-5-benzyl-N-(2,4-dimethyl-5-oxo-5,6,7,8-tetrahydro-4H-pyrazolo[1,5-a][1,3]diazepin-6-yl)-4H-1,2,4-triazole-3-carboxamide] are within 0.2 log units of each other in pKi: 5.10 for the first, 5.05 for the second.
